We go through one molecule from publication PMC12505664, “Enflicoxib for the long-term management of canine osteoarthritis—External validation of a population pharmacokinetic model in dogs with osteoarthritis” (Frontiers in Veterinary Science, 2025).

“And” between values parts separate entries of the source, which are not always exact repeats. Equal values may be shown once.

The nature of the data set: Plasma levels of enflicoxib and pyrazol metabolite in the 6-month field clinical study (HPLC-MS/MS). The data set is classed as in vivo, client-owned dogs with OA. The following applies: for Mean plasma level: oral 8 mg/kg then 4 mg/kg weekly. The procedure: A prospective, multisite, blinded, randomized, placebo-controlled, parallel-group field study was performed in accordance with Good Clinical Practice standards ([16]). The study aimed to confirm the safety and efficacy of enflicoxib treatment of pain and inflammation associated with naturally occurring canine OA in dogs of any breed and sex treated for 6 months. The protocol was approved by the regulatory authorities of both Portugal and Hungary. Written informed consent was obtained from all dog owners prior to enrolment of their dogs. Dogs remained under the care of their owners at home throughout the study.
Before enrolment, all dogs underwent a physical examination, and blood and urine samples were taken. After enrollment, dogs were randomized in a predefined enflicoxib:placebo ratio of 3:1. Enflicoxib was dosed orally at weekly intervals, with an initial dose of 8 mg/kg, followed by once-a-week maintenance doses of 4 mg/kg for a total of 26 weeks. Dogs in the enflicoxib group received Daxocox® tablets (Ecuphar/Animalcare group), while dogs in the placebo group received the same formulation without the active ingredient under the same posology (number of tablets and dosing interval). […] No positive control was included due to difficulties in maintaining blinding with products under different posology during the entire follow-up period.
Two blood samples for popPK analysis were collected from all animals enrolled in the study one on day 44(±2 days)/1.5 months, (similar to the last sample taken in the previous clinical studies), after clinical assessment of pain and lameness and prior to treatment administration and another one at the end of the study on day 189/6 months (±2 days), or individual premature study termination day. Day 189 corresponds to the trough concentration after the 27th weekly administration (PK sample taken at the end of the weekly dosing interval). Meanwhile, day 44 corresponds to a PK sample obtained 2 days after the 7th weekly administration. The veterinary practices had the necessary resources and adequate freezing equipment for the long-term storage of plasma samples. Blood samples were collected into potassium-3-ethylenediaminetetraacetic acid (K3EDTA) labeled tubes, which were immediately centrifuged at ~2,500g for 10 min (at +4 °C whenever possible) to obtain plasma. Once received, plasma was transferred into two labeled propylene tubes (aliquots 1 and 2). Each plasma aliquot was stored frozen at a nominal temperature of −20 (±2) °C until shipment to the Laboratory of analysis Welab Barcelona (Parc Científic de Barcelona, C/Baldiri Reixac 4-12, 08028, Barcelona). The maximum storage time for the samples was 376 days at nominally −20 °C/−80 °C. Considering the long-term stability of enflicoxib and its metabolite in dog plasma samples stored at −20 °C, which spans a minimum of 402 days, the stability of the study samples was guaranteed for the entire duration of the study. Samples were analyzed without information on the treatment allocation (laboratory-blinded study).
Enflicoxib and pyrazol metabolite plasma levels were measured by a previously fully validated high-performance liquid chromatography (HPLC)-method coupled with tandem mass spectrometry (MS/MS) detection as described in Homedes et al. ([4]).

Consider `NS(=O)(=O)c1ccc(N2N=C(C(F)(F)F)CC2c2ccc(F)cc2F)cc1` (stereo not drawn) [Enflicoxib], for which the Mean plasma level (day 44 (2 days after 7th weekly administration), N=75) is 491.7 ng/mL and 492 ng/mL; the Mean plasma level (day 93 (premature study termination), N=2) was 296.8 ng/mL; the Mean plasma level (day 189 (trough after 27th weekly administration), N=65) came out at 262.5 ng/mL; the Mean plasma level (day 189 (trough after 27th weekly administration), N=65, listed as enflicoxib) was determined as 263 ng/mL. In addition, the Max plasma level is, setting by setting: (day 44, N=75) 1,846.5 ng/mL; (day 93, N=2) 356.0 ng/mL; (day 189, N=65) 1,846.3 ng/mL. In addition, the Min plasma level reads like this: (day 44, N=75) 5.0 ng/mL; (day 93, N=2) 237.7 ng/mL; (day 189, N=65) 5.0 ng/mL. The “Probability (%) concentration < 10 ng/mL” value (day 44, N=75) is given as 13.3%; the “Probability (%) concentration < 10 ng/mL” value (day 44, N=75, listed as enflicoxib) came out at 13%; the “Probability (%) concentration < 10 ng/mL” value (day 93, N=2) was 0.0%; the “Probability (%) concentration < 10 ng/mL” value (day 189, N=65) was 27.7%; the “Probability (%) concentration < 10 ng/mL” value (day 189, N=65, listed as enflicoxib) is recorded as 28%. For the same molecule, the “Probability (%) concentration < LOQ” value is recorded as 9.3% (day 44, N=75); 0.0% (day 93, N=2); 27.7% (day 189, N=65).
